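Tested at 5 concentrations; 48 h exposure; 96-well plates; endpoints linearly interpolated, else capped at highest concentration. GI50 = concentration required for 50% inhibition of growth.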 The source made the active and inactive calls. No stated cut-off is given here; in the data, active = GI50 up to about 1.1 µM and inactive = higher.
Columns and labels:
Experiment in all cases: NCI anticancer screen, dose series, 48 h
[1] = test system: OVCAR-8
[2] = test system: UACC-62
[3] = test system: NCI-H23
[4] = test system: U-251
[5] = test system: MOLT-4
[6] = test system: CCRF-CEM
[7] = test system: SW-620
[8] = test system: EKVX
[9] = test system: LXFL 529
[10] = test system: M19-MEL
[11] = test system: SF-539
[12] = test system: NCI-H522
[13] = test system: Malme-3M
[14] = test system: KM12
[15] = test system: SNB-19
[16] = test system: NCI-H460
[17] = test system: MDA-MB-231
[18] = test system: MCF7
[19] = test system: MDA-MB-435
[20] = test system: PC-3

SMILES | GI50 [1] | GI50 [2] | GI50 [3] | GI50 [4] | GI50 [5] | GI50 [6] | GI50 [7] | GI50 [8] | GI50 [9] | GI50 [10] | GI50 [11] | GI50 [12] | GI50 [13] | GI50 [14] | GI50 [15] | GI50 [16] | GI50 [17] | GI50 [18] | GI50 [19] | GI50 [20]
O=C1NC2(CCCCCC2)C2CCCCCCC12O (centres undefined) | > 100 µM (inactive) | > 100 µM (inactive) | > 100 µM (inactive) | > 100 µM (inactive) | > 100 µM (inactive) | > 100 µM (inactive) | > 100 µM (inactive) | > 100 µM (inactive) | > 100 µM (inactive) | > 100 µM (inactive) | > 100 µM (inactive) | > 100 µM (inactive) | > 100 µM (inactive) | > 100 µM (inactive) | > 100 µM (inactive) | > 100 µM (inactive) | – | – | – | –
CCCCCCCCC(O)C#CC(N)=O (centres undefined) | 9.42 µM (inactive) | 5.16 µM (inactive) | 17.6 µM (inactive) | 8.34 µM (inactive) | 16.9 µM (inactive) | 15.5 µM (inactive) | 14.1 µM (inactive) | 11.4 µM (inactive) | 11.2 µM (inactive) | 11.8 µM (inactive) | 12.5 µM (inactive) | – | 16.7 µM (inactive) | – | 11.8 µM (inactive) | 9.1 µM (inactive) | – | – | – | –
CCN(CC)CCN1CCc2c([nH]c3ccccc23)C1c1cccnc1 (centres undefined) | > 100 µM (inactive) | > 100 µM (inactive) | > 100 µM (inactive) | > 100 µM (inactive) | > 100 µM (inactive) | 94.6 µM (inactive) | > 100 µM (inactive) | > 100 µM (inactive) | > 100 µM (inactive) | > 100 µM (inactive) | > 100 µM (inactive) | > 100 µM (inactive) | – | > 100 µM (inactive) | > 100 µM (inactive) | > 100 µM (inactive) | – | – | – | –
CC(=O)C1C(c2ccccc2)C2(C)OC(=O)C(C#N)C12C (centres undefined) | > 100 µM (inactive) | > 100 µM (inactive) | > 100 µM (inactive) | > 100 µM (inactive) | > 100 µM (inactive) | > 100 µM (inactive) | > 100 µM (inactive) | > 100 µM (inactive) | > 100 µM (inactive) | > 100 µM (inactive) | > 100 µM (inactive) | – | > 100 µM (inactive) | > 100 µM (inactive) | > 100 µM (inactive) | > 100 µM (inactive) | – | – | – | –
CCOC(=O)C(C(=O)OCC)=C1C=C(c2ccccc2)c2ccccc21 | > 100 µM (inactive) | > 100 µM (inactive) | 54.5 µM (inactive) | 86.7 µM (inactive) | 30.5 µM (inactive) | 27.5 µM (inactive) | 89.3 µM (inactive) | > 100 µM (inactive) | 53.2 µM (inactive) | 52.5 µM (inactive) | 62.7 µM (inactive) | – | > 100 µM (inactive) | 37.4 µM (inactive) | > 100 µM (inactive) | 31.8 µM (inactive) | – | – | – | –
C[C@]12CCC(=O)C(O)=C1CC[C@@H]1C2CC[C@]2(C)Nc3c(cnn3-c3ccccc3)CC12 (some centres undefined) | 64.4 µM (inactive) | 77.6 µM (inactive) | 54.5 µM (inactive) | > 100 µM (inactive) | 32.6 µM (inactive) | 37.2 µM (inactive) | > 100 µM (inactive) | > 100 µM (inactive) | 42.6 µM (inactive) | > 100 µM (inactive) | 67.6 µM (inactive) | – | 91 µM (inactive) | 31.7 µM (inactive) | – | 48.8 µM (inactive) | – | – | – | –
NC(CCCNCc1ccccc1O)C(=O)O (centres undefined) | > 100 µM (inactive) | > 100 µM (inactive) | > 100 µM (inactive) | – | > 100 µM (inactive) | > 100 µM (inactive) | > 100 µM (inactive) | > 100 µM (inactive) | > 100 µM (inactive) | > 100 µM (inactive) | > 100 µM (inactive) | > 100 µM (inactive) | > 100 µM (inactive) | > 100 µM (inactive) | > 100 µM (inactive) | > 100 µM (inactive) | – | – | – | –
CC12OC3(O)C4C5CC(C6C5C3C61)C42 (centres undefined) | > 100 µM (inactive) | > 100 µM (inactive) | – | > 100 µM (inactive) | > 100 µM (inactive) | > 100 µM (inactive) | > 100 µM (inactive) | – | 22.9 µM (inactive) | > 100 µM (inactive) | > 100 µM (inactive) | > 100 µM (inactive) | > 100 µM (inactive) | > 100 µM (inactive) | > 100 µM (inactive) | – | – | – | – | –
C/C(CC(=O)Nc1ccc([N+](=O)[O-])cc1)=N\Nc1ccc([N+](=O)[O-])cc1[N+](=O)[O-] | > 100 µM (inactive) | 49 µM (inactive) | > 100 µM (inactive) | > 100 µM (inactive) | 13.1 µM (inactive) | 45 µM (inactive) | > 100 µM (inactive) | > 100 µM (inactive) | 20.9 µM (inactive) | > 100 µM (inactive) | 41 µM (inactive) | 25.9 µM (inactive) | > 100 µM (inactive) | 29.3 µM (inactive) | – | 44.4 µM (inactive) | – | – | – | –
O=C1Nc2ccccc2N/C1=C\C(=O)c1ccccc1O | > 100 µM (inactive) | > 100 µM (inactive) | > 100 µM (inactive) | > 100 µM (inactive) | > 100 µM (inactive) | > 100 µM (inactive) | > 100 µM (inactive) | > 100 µM (inactive) | > 100 µM (inactive) | > 100 µM (inactive) | – | > 100 µM (inactive) | > 100 µM (inactive) | > 100 µM (inactive) | > 100 µM (inactive) | > 100 µM (inactive) | – | – | – | –
Cc1cc2c(=O)c3ccccc3[nH]c2c(C(=O)O)c1C | > 100 µM (inactive) | > 100 µM (inactive) | > 100 µM (inactive) | > 100 µM (inactive) | > 100 µM (inactive) | > 100 µM (inactive) | > 100 µM (inactive) | 66.5 µM (inactive) | > 100 µM (inactive) | > 100 µM (inactive) | > 100 µM (inactive) | – | – | > 100 µM (inactive) | > 100 µM (inactive) | > 100 µM (inactive) | – | – | – | –
CN(c1ccccc1)S(=O)(=O)c1ccccc1[N+](=O)[O-] | > 100 µM (inactive) | > 100 µM (inactive) | > 100 µM (inactive) | > 100 µM (inactive) | 26.2 µM (inactive) | 44.3 µM (inactive) | > 100 µM (inactive) | > 100 µM (inactive) | – | – | > 100 µM (inactive) | 64.3 µM (inactive) | > 100 µM (inactive) | > 100 µM (inactive) | > 100 µM (inactive) | 77.1 µM (inactive) | 67.9 µM (inactive) | > 100 µM (inactive) | 71.9 µM (inactive) | 57.9 µM (inactive)
COc1ccc2c(c1)-c1nc(=S)n(CCN(C)C)c3ccc([N+](=O)[O-])c(c13)N2 | 0.484 µM (active) | 10.6 µM (inactive) | 1.16 µM (inactive) | 1.08 µM (active) | 0.15 µM (active) | 1.09 µM (active) | 0.404 µM (active) | 1.97 µM (inactive) | – | – | 0.824 µM (active) | 0.533 µM (active) | 0.693 µM (active) | 0.971 µM (active) | 0.828 µM (active) | 0.365 µM (active) | 1.23 µM (inactive) | 0.861 µM (active) | 2.1 µM (inactive) | 1.06 µM (active)
CCOC(=O)CCc1cn2cc(Br)nc(OC)c2n1 | 59.2 µM (inactive) | 36 µM (inactive) | 67.5 µM (inactive) | 65.6 µM (inactive) | 13.3 µM (inactive) | 10.1 µM (inactive) | 16.2 µM (inactive) | > 100 µM (inactive) | – | – | 50.5 µM (inactive) | 81.8 µM (inactive) | > 100 µM (inactive) | 5.41 µM (inactive) | > 100 µM (inactive) | > 100 µM (inactive) | 39.2 µM (inactive) | 16.2 µM (inactive) | 2.82 µM (inactive) | 50.9 µM (inactive)
CC(C)(C(=O)N(C(=O)N1CCN(c2ccccc2)CC1)S(=O)(=O)c1ccccc1)c1ccc(Cl)cc1 | 16.6 µM (inactive) | 40.6 µM (inactive) | 16.3 µM (inactive) | 6.32 µM (inactive) | 3.33 µM (inactive) | 3.94 µM (inactive) | 7.03 µM (inactive) | 13.5 µM (inactive) | – | – | 61.8 µM (inactive) | 4.32 µM (inactive) | 90.4 µM (inactive) | 19.3 µM (inactive) | 20.5 µM (inactive) | 28.8 µM (inactive) | 31.7 µM (inactive) | 4.33 µM (inactive) | 51.2 µM (inactive) | 12.6 µM (inactive)
OC1NC2CC3NC(O)C(O)NC3CC2NC1O (centres undefined) | > 100 µM (inactive) | > 100 µM (inactive) | > 100 µM (inactive) | > 100 µM (inactive) | > 100 µM (inactive) | > 100 µM (inactive) | > 100 µM (inactive) | > 100 µM (inactive) | – | – | > 100 µM (inactive) | > 100 µM (inactive) | > 100 µM (inactive) | > 100 µM (inactive) | > 100 µM (inactive) | > 100 µM (inactive) | > 100 µM (inactive) | > 100 µM (inactive) | > 100 µM (inactive) | > 100 µM (inactive)
O=c1c2cc([N+](=O)[O-])cnc2sn1-c1ccc(Br)cc1 | > 100 µM (inactive) | 82.4 µM (inactive) | 29.6 µM (inactive) | 34.4 µM (inactive) | 32.8 µM (inactive) | 22.9 µM (inactive) | 28.3 µM (inactive) | 42.5 µM (inactive) | – | – | 27.3 µM (inactive) | 5.5 µM (inactive) | 19.1 µM (inactive) | 40.8 µM (inactive) | 38.8 µM (inactive) | 66.8 µM (inactive) | 28.3 µM (inactive) | 26 µM (inactive) | > 100 µM (inactive) | 33.7 µM (inactive)

From ChEMBL document CHEMBL1201862, “PubChem BioAssay data set” (2004)
